Earlier results, collected in paper PMC11088877, “AMP-activated protein kinase can be allosterically activated by ADP but AMP remains the key activating ligand” (Biochemical Journal, 2024).

Biological target: bacterially expressed AMPK heterotrimers (γ subunit CBS sites)
Conditions: in the presence of Mg2+ and staurosporine; read-out: estimated Kd at the CBS3 site; cited from earlier work

## Nc1ncnc2c1ncn2[C@@H]1O[C@H](COP(=O)(O)OP(=O)(O)OP(=O)(O)O)[C@@H](O)[C@H]1O [ATP]
  Kd: 100 to 500 µM
